Results as given in US4542137A, “Alkylaminodesoxy-1.4;3.6-dianhydrohexitol nitrates substituted by purine bases and pharmaceutical compositions” (priority 1980, dated 1985).

System: mongrel dogs
Assay: circulatory pharmacological effectiveness on narcotised dogs, intravenous
Type: in vivo, dog
Conditions: dog i.v. ISDN/9c 1, 1d 0.5 mg/kg

CN(CCCn1cnc2c1c(=O)n(C)c(=O)n2C)[C@H]1CO[C@H]2[C@@H]1OC[C@@H]2O[N+](=O)[O-] [Example 9c, 5-[N-Methyl-N-(3-theophyllin-7-ylpropyl)-amino]-5-desoxy-1.4;3.6-dianhydro-L-iditol 2-nitrate]
APdiast: diastolic aorta pressure (2 min): 58.1 mm.Hg
APsyst: systolic aorta pressure (2 min): 105.0 mm.Hg
BFFem: blood flow in the A. femoralis referred to 20 kg body weight (2 min): 34.6 mL/min
HF: heart frequency (2 min): 163.2
HLL: heart capacity left, referred to 20 kg body weight (2 min): 0.51 W
HLR: heart capacity right, referred to 20 kg body weight (2 min): 67.6 mW
HZV: heart minute volume, referred to 20 kg body weight (2 min): 3.15 L/min
LVEDP: end diastolic pressure in the left ventricle (2 min): 3.60 mm.Hg
SV: beat volume, referred to 20 kg body weight (2 min): 20.0 mL
WAP: pulmonalis resistance, referred to 20 kg body weight (2 min): 0.30 U
WFem: moralis resistance, referred to 20 kg body weight (2 min): 0.33 KU
WTP: total peripheral resistance, referred to 20 kg body weight (2 min): 3.07 U
dp/dt: rate of pressure increase in the left ventricle (2 min): 3045.0 mm.Hg/sec
APdiast: diastolic aorta pressure (5 min): 79.7 mm.Hg
APsyst: systolic aorta pressure (5 min): 126.6 mm.Hg
BFFem: blood flow in the A. femoralis referred to 20 kg body weight (5 min): 39.1 mL/min
HF: heart frequency (5 min): 129.7
HLL: heart capacity left, referred to 20 kg body weight (5 min): 0.56 W
HLR: heart capacity right, referred to 20 kg body weight (5 min): 66.9 mW
HZV: heart minute volume, referred to 20 kg body weight (5 min): 2.73 L/min
LVEDP: end diastolic pressure in the left ventricle (5 min): 4.64 mm.Hg
SV: beat volume, referred to 20 kg body weight (5 min): 21.1 mL
WAP: pulmonalis resistance, referred to 20 kg body weight (5 min): 0.33 U
WFem: moralis resistance, referred to 20 kg body weight (5 min): 0.37 KU
dp/dt: rate of pressure increase in the left ventricle (5 min): 2287.5 mm.Hg/sec
APdiast: diastolic aorta pressure (7 min): 82.5 mm.Hg
APsyst: systolic aorta pressure (7 min): 129.4 mm.Hg
BFFem: blood flow in the A. femoralis referred to 20 kg body weight (7 min): 42.5 mL/min
HF: heart frequency (7 min): 123.2
HLL: heart capacity left, referred to 20 kg body weight (7 min): 0.58 W
HLR: heart capacity right, referred to 20 kg body weight (7 min): 64.2 mW
HZV: heart minute volume, referred to 20 kg body weight (7 min): 2.75 L/min
LVEDP: end diastolic pressure in the left ventricle (7 min): 4.92 mm.Hg
SV: beat volume, referred to 20 kg body weight (7 min): 22.4 mL
WFem: moralis resistance, referred to 20 kg body weight (7 min): 0.34 KU
WTP: total peripheral resistance, referred to 20 kg body weight (7 min): 4.77 U
dp/dt: rate of pressure increase in the left ventricle (7 min): 2325.0 mm.Hg/sec
APdiast: diastolic aorta pressure (10 min): 81.6 mm.Hg
APsyst: systolic aorta pressure (10 min): 127.5 mm.Hg
HF: heart frequency (10 min): 120.5
HLL: heart capacity left, referred to 20 kg body weight (10 min): 0.57 W
HLR: heart capacity right, referred to 20 kg body weight (10 min): 68.8 mW
HZV: heart minute volume, referred to 20 kg body weight (10 min): 2.76 L/min
LVEDP: end diastolic pressure in the left ventricle (10 min): 4.92 mm.Hg
SV: beat volume, referred to 20 kg body weight (10 min): 23.0 mL
WAP: pulmonalis resistance, referred to 20 kg body weight (10 min): 0.32 U
WFem: moralis resistance, referred to 20 kg body weight (10 min): 0.32 KU
WTP: total peripheral resistance, referred to 20 kg body weight (10 min): 4.68 U
APdiast: diastolic aorta pressure (15 min): 81.6 mm.Hg
APsyst: systolic aorta pressure (15 min): 128.4 mm.Hg
BFFem: blood flow in the A. femoralis referred to 20 kg body weight (15 min): 43.4 mL/min
HF: heart frequency (15 min): 115.2
HLL: heart capacity left, referred to 20 kg body weight (15 min): 0.57 W
HLR: heart capacity right, referred to 20 kg body weight (15 min): 63.6 mW
HZV: heart minute volume, referred to 20 kg body weight (15 min): 2.77 L/min
LVEDP: end diastolic pressure in the left ventricle (15 min): 5.20 mm.Hg
SV: beat volume, referred to 20 kg body weight (15 min): 24.2 mL
WAP: pulmonalis resistance, referred to 20 kg body weight (15 min): 0.30 U
WFem: moralis resistance, referred to 20 kg body weight (15 min): 0.31 KU
WTP: total peripheral resistance, referred to 20 kg body weight (15 min): 4.65 U
dp/dt: rate of pressure increase in the left ventricle (15 min): 2250.0 mm.Hg/sec
APdiast: diastolic aorta pressure (20 min): 82.5 mm.Hg
APsyst: systolic aorta pressure (20 min): 128.4 mm.Hg
BFFem: blood flow in the A. femoralis referred to 20 kg body weight (20 min): 44.2 mL/min
HF: heart frequency (20 min): 114.5
HLL: heart capacity left, referred to 20 kg body weight (20 min): 0.55 W
HLR: heart capacity right, referred to 20 kg body weight (20 min): 63.1 mW
HZV: heart minute volume, referred to 20 kg body weight (20 min): 2.65 L/min
LVEDP: end diastolic pressure in the left ventricle (20 min): 5.48 mm.Hg
SV: beat volume, referred to 20 kg body weight (20 min): 23.3 mL
WAP: pulmonalis resistance, referred to 20 kg body weight (20 min): 0.30 U
WFem: moralis resistance, referred to 20 kg body weight (20 min): 0.31 KU
WTP: total peripheral resistance, referred to 20 kg body weight (20 min): 4.90 U
dp/dt: rate of pressure increase in the left ventricle (20 min): 2221.9 mm.Hg/sec
APdiast: diastolic aorta pressure (25 min): 83.4 mm.Hg
APsyst: systolic aorta pressure (25 min): 131.2 mm.Hg
BFFem: blood flow in the A. femoralis referred to 20 kg body weight (25 min): 41.3 mL/min
HLL: heart capacity left, referred to 20 kg body weight (25 min): 0.56 W
HLR: heart capacity right, referred to 20 kg body weight (25 min): 60.5 mW
HZV: heart minute volume, referred to 20 kg body weight (25 min): 2.65 L/min
LVEDP: end diastolic pressure in the left ventricle (25 min): 5.62 mm.Hg
SV: beat volume, referred to 20 kg body weight (25 min): 23.7 mL
WAP: pulmonalis resistance, referred to 20 kg body weight (25 min): 0.27 U
WFem: moralis resistance, referred to 20 kg body weight (25 min): 0.33 KU
WTP: total peripheral resistance, referred to 20 kg body weight (25 min): 5.00 U
dp/dt: rate of pressure increase in the left ventricle (25 min): 2221.9 mm.Hg/sec
APdiast: diastolic aorta pressure (30 min): 81.6 mm.Hg
APsyst: systolic aorta pressure (30 min): 134.1 mm.Hg
BFFem: blood flow in the A. femoralis referred to 20 kg body weight (30 min): 44.2 mL/min
HF: heart frequency (30 min): 111.5
HLL: heart capacity left, referred to 20 kg body weight (30 min): 0.57 W
HLR: heart capacity right, referred to 20 kg body weight (30 min): 60.5 mW
HZV: heart minute volume, referred to 20 kg body weight (30 min): 2.68 L/min
LVEDP: end diastolic pressure in the left ventricle (30 min): 5.62 mm.Hg
SV: beat volume, referred to 20 kg body weight (30 min): 24.2 mL
WFem: moralis resistance, referred to 20 kg body weight (30 min): 0.31 KU
WTP: total peripheral resistance, referred to 20 kg body weight (30 min): 4.87 U
dp/dt: rate of pressure increase in the left ventricle (30 min): 2221.9 mm.Hg/sec
APdiast: diastolic aorta pressure (40 min): 86.2 mm.Hg
APsyst: systolic aorta pressure (40 min): 136.9 mm.Hg
